Laboratory results taken from the NIST ThermoML archive (doi:10.1021/je101012n).

Assay: mn = molality of the nth substance listed, in mol/kg
Details: 101 kPa, Liquid, Alternating current cell with electrodes

[Cl-].[Cl-].[Sr+2] [strontium chloride] + O
electrical conductivity [S/m]
Details	278.15 K	283.15 K	298.15 K	308.15 K	318.15 K	343.15 K	363.15 K
m1 = 0.000125	0.002084	0.002384	0.003331	0.003972	0.004689	0.00678	0.00842
m1 = 0.00141	0.02222	0.02538	0.03603	0.04353	0.05151	0.07369	0.09235
m1 = 0.012	0.1807	0.2072	0.2926	0.3531	0.4164	0.5927	0.7383
m1 = 0.1313	1.663	1.892	2.646	3.174	3.719	5.229	6.184
m1 = 0.3891	4.194	4.751	6.457	7.797	9.074	12.51	15.38

O=S(=O)(O)O [sulfuric acid] + O
electrical conductivity [S/m]
Details	278.15 K	283.15 K	298.15 K	308.15 K	318.15 K	343.15 K	363.15 K
m1 = 9.4e-05	0.005493	0.006105	0.007827	0.008931	0.009949	0.01221	0.01367
m1 = 0.000936	0.05201	0.05749	0.07292	0.08174	0.09001	0.1026	0.1058
m1 = 0.00944	0.4321	0.4729	0.5772	0.6319	0.6759	0.7372	0.7698
m1 = 0.09223	3.12	3.444	4.13	4.525	4.885	5.575	6.159
m1 = 0.4664	13.46	14.5	17.37	19.34	20.96	25.62	28.05
